# Measured values reported in patent publication US10294202B2, “Pyrrolidinones as herbicides” (FMC Corporation, priority 2013, dated 2019).
# Assays:
# barnyardgrass = test: Test A pre-/postemergence herbicide test; type: in vivo, Echinochloa crus-galli
# Summary of the method: (§1)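 Scoring was visual, relative to untreated controls, on a 0–100 scale after about 10 greenhouse days. Preemergence treatment used a directed soil spray over seeded loam/sand; postemergence treatment targeted one- to two-leaf plants of 2–10 cm.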
# pigweed = test: Test A pre-/postemergence herbicide test; type: in vivo, Amaranthus retroflexus
# Summary of the method: as §1
# wheat = test: Test A pre-/postemergence herbicide test; type: in vivo, Triticum aestivum; conditions: Postemergence
# Summary of the method: as §1
# ducksalad = test: Test B flooded paddy test; type: in vivo, Heteranthera limosa; conditions: 500 g ai/ha, Flood; scale of 0 to 100 where 0 is no effect and 100 is complete control
# Summary of the method: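 2-leaf plants; flood 3 cm over soil; compound into paddy water; depth held. Greenhouse 13–15 d. Visual rating vs controls, 0 (no effect) to 100 (complete control); dash = not tested.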
# blackgrass = test: Test C pre-/postemergence herbicide test; type: in vivo, Alopecurus myosuroides
# Summary of the method: (§2)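 Response scores range from 0, meaning no effect, to 100, meaning complete control, assigned visually by comparison with controls roughly two weeks (13 to 15 days) after spraying. Applications were made preemergence to seeded loam–sand soil and postemergence to 1- to 4-leaf plants.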
# ryegrass, Italian = test: Test C pre-/postemergence herbicide test; type: in vivo, Lolium multiflorum
# Summary of the method: as §2
# wheat (winter wheat) = test: Test C pre-/postemergence herbicide test; type: in vivo, Triticum aestivum
# Summary of the method: as §2
# galium = test: Test C pre-/postemergence herbicide test; type: in vivo, Galium aparine
# Summary of the method: as §2
# nutsedge, yellow = test: Test C pre-/postemergence herbicide test; type: in vivo, Cyperus esculentus
# Summary of the method: as §2
# oilseed rape = test: Test C pre-/postemergence herbicide test; type: in vivo, Brassica napus
# Summary of the method: as §2
# [1] = Postemergence, 125 g ai/ha, visual rating on 0 to 100 scale (0 no effect, 100 complete control), approx. 10 days
# [2] = Postemergence, 500 g ai/ha, 0 to 100 scale (0 no effect, 100 complete control)
# [3] = Preemergence, 125 g ai/ha, 0 to 100 scale where 0 is no effect and 100 is complete control
# [4] = Preemergence, 500 g ai/ha, visual rating on 0 to 100 scale (0 no effect, 100 complete control)
# [5] = 125 g ai/ha, visual rating on 0 to 100 scale (0 no effect, 100 complete control), approx. 10 days
# [6] = 500 g ai/ha, 0 to 100 scale (0 no effect, 100 complete control)
# [7] = Postemergence, 31 g ai/ha, scale 0 to 100 (0 no effect, 100 complete control)
# [8] = Postemergence, 62 g ai/ha, scale 0 (no effect) to 100 (complete control)
# [9] = Postemergence, 125 g ai/ha, scale 0 to 100 (0 no effect, 100 complete control)
# [10] = Postemergence, 250 g ai/ha, scale 0 to 100 (0 no effect, 100 complete control)
# [11] = Preemergence, 31 g ai/ha, scale 0 to 100, 0 is no effect and 100 is complete control
# [12] = Preemergence, 62 g ai/ha, scale 0 to 100 (0 no effect, 100 complete control)
# [13] = Preemergence, 125 g ai/ha, scale 0 to 100
smiles,measurement,setting,value
O=C1NCC(c2cccc(Br)c2)C1C(=O)Nc1ccc(F)c(F)c1F (stereo not shown) [Compound 310],"Plant response rating, Barnyardgrass",barnyardgrass; [1],90
same,"Plant response rating, Barnyardgrass",barnyardgrass; [2],90
same,"Plant response rating, Barnyardgrass",barnyardgrass; [3],90
same,Barnyardgrass plant response rating,barnyardgrass; [4],90
same,"Plant response rating, Pigweed",pigweed; [1],0
same,"Plant response rating, Pigweed",pigweed; [2],0
same,"Plant response rating, Pigweed",pigweed; [3],40
same,Pigweed plant response rating,pigweed; [4],40
same,"Plant response rating, Wheat",wheat; [5],30
same,"Plant response rating, Wheat",wheat; [6],50
same,"Plant response rating, Ducksalad",ducksalad,100
same,"Plant response rating, Blackgrass",blackgrass; [7],0
same,"Plant response rating, Blackgrass",blackgrass; [8],0
same,"Plant response rating, Blackgrass",blackgrass; [9],5
same,"Plant response rating, Blackgrass",blackgrass; [10],5
same,Blackgrass plant response rating,blackgrass; [11],0
same,Blackgrass plant response rating,blackgrass; [12],5
same,"Plant response rating, Blackgrass",blackgrass; [13],50
same,"Plant response rating (scale of 0 to 100), Blackgrass","blackgrass; Preemergence, 250 g ai/ha",45
same,"Plant response rating, Ryegrass, Italian","ryegrass, Italian; [7]",0
same,"Plant response rating, Ryegrass, Italian","ryegrass, Italian; [8]",0
same,"Plant response rating, Ryegrass, Italian","ryegrass, Italian; [9]",0
same,"Plant response rating, Ryegrass, Italian","ryegrass, Italian; [10]",5
same,"Ryegrass, Italian plant response rating","ryegrass, Italian; [12]",0
same,"Plant response rating, Ryegrass, Italian","ryegrass, Italian; [13]",20
same,"Plant response rating (scale of 0 to 100), Ryegrass, Italian","ryegrass, Italian; Preemergence, 250 g ai/ha",25
same,"Plant response rating, Wheat",wheat (winter wheat); [7],0
same,"Plant response rating, Wheat",wheat (winter wheat); [8],0
same,"Plant response rating, Wheat",wheat (winter wheat); [9],0
same,"Plant response rating, Wheat",wheat (winter wheat); [10],0
same,Wheat plant response rating,wheat (winter wheat); [12],0
same,"Plant response rating, Wheat",wheat (winter wheat); [13],0
same,"Plant response rating (scale of 0 to 100), Wheat","wheat (winter wheat); Preemergence, 250 g ai/ha",10
same,"Plant response rating, Galium",galium; [7],35
same,"Plant response rating, Galium",galium; [8],50
same,"Plant response rating, Galium",galium; [9],50
same,"Plant response rating, Galium",galium; [10],65
same,Galium plant response rating,galium; [11],0
same,Galium plant response rating,galium; [12],0
same,"Plant response rating, Galium",galium; [13],0
same,"Plant response rating (scale of 0 to 100), Galium","galium; Preemergence, 250 g ai/ha",70
same,"Plant response rating, Nutsedge, Yellow","nutsedge, yellow; [7]",0
same,"Plant response rating, Nutsedge, Yellow","nutsedge, yellow; [8]",0
same,"Plant response rating, Nutsedge, Yellow","nutsedge, yellow; [9]",0
same,"Plant response rating, Nutsedge, Yellow","nutsedge, yellow; [10]",25
same,"Nutsedge, Yellow plant response rating","nutsedge, yellow; [11]",0
same,"Nutsedge, Yellow plant response rating","nutsedge, yellow; [12]",0
same,"Plant response rating, Nutsedge, Yellow","nutsedge, yellow; [13]",0
same,"Plant response rating (scale of 0 to 100), Nutsedge, Yellow","nutsedge, yellow; Preemergence, 250 g ai/ha",0
same,"Plant response rating, Oilseed Rape",oilseed rape; [7],0
same,"Plant response rating, Oilseed Rape",oilseed rape; [8],0
same,"Plant response rating, Oilseed Rape",oilseed rape; [9],0
same,"Plant response rating, Oilseed Rape",oilseed rape; [10],40
same,Oilseed Rape plant response rating,oilseed rape; [11],0
same,Oilseed Rape plant response rating,oilseed rape; [12],5
same,"Plant response rating, Oilseed Rape",oilseed rape; [13],40
same,"Plant response rating (scale of 0 to 100), Oilseed Rape","oilseed rape; Preemergence, 250 g ai/ha",85
CC(C)c1cccc(C2CNC(=O)C2C(=O)Nc2ccccc2F)c1 (stereo not shown) [Compound 318],"Plant response rating, Barnyardgrass",barnyardgrass; [1],90
same,"Plant response rating, Barnyardgrass",barnyardgrass; [2],90
same,"Plant response rating, Barnyardgrass",barnyardgrass; [3],90
same,Barnyardgrass plant response rating,barnyardgrass; [4],90
same,"Plant response rating, Pigweed",pigweed; [1],20
same,"Plant response rating, Pigweed",pigweed; [2],20
same,"Plant response rating, Pigweed",pigweed; [3],0
same,Pigweed plant response rating,pigweed; [4],20
same,"Plant response rating, Wheat",wheat; [5],20
same,"Plant response rating, Wheat",wheat; [6],30
same,"Plant response rating, Ducksalad",ducksalad,100
same,Blackgrass plant response rating,blackgrass; [11],0
same,Blackgrass plant response rating,blackgrass; [12],0
same,"Plant response rating, Blackgrass",blackgrass; [13],30
same,"Plant response rating (scale of 0 to 100), Blackgrass","blackgrass; Preemergence, 250 g ai/ha",45
same,"Ryegrass, Italian plant response rating","ryegrass, Italian; [12]",0
same,"Plant response rating, Ryegrass, Italian","ryegrass, Italian; [13]",0
same,Wheat plant response rating,wheat (winter wheat); [12],0
same,"Plant response rating, Wheat",wheat (winter wheat); [13],5
same,Galium plant response rating,galium; [11],0
same,Galium plant response rating,galium; [12],0
same,"Plant response rating, Galium",galium; [13],40
same,"Plant response rating (scale of 0 to 100), Galium","galium; Preemergence, 250 g ai/ha",100
same,"Nutsedge, Yellow plant response rating","nutsedge, yellow; [11]",0
same,"Nutsedge, Yellow plant response rating","nutsedge, yellow; [12]",0
same,"Plant response rating, Nutsedge, Yellow","nutsedge, yellow; [13]",0
same,"Plant response rating (scale of 0 to 100), Nutsedge, Yellow","nutsedge, yellow; Preemergence, 250 g ai/ha",0
same,Oilseed Rape plant response rating,oilseed rape; [11],0
same,Oilseed Rape plant response rating,oilseed rape; [12],0
same,"Plant response rating, Oilseed Rape",oilseed rape; [13],5
same,"Plant response rating (scale of 0 to 100), Oilseed Rape","oilseed rape; Preemergence, 250 g ai/ha",5
